This note sets out measurements from patent publication US12644045B2, “Fluorescent compounds and application thereof” (The Hong Kong University of Science and Technology, priority 2020, dated 2026).

A short description of data set [1]: Photophysical properties (PL emission, quantum yield, AIE). It counts as physicochemical. The settings on record: for aggregation induced emission (AIE): THF/water mixtures with increasing water fraction. On the procedure:
FIG. 16A Normalized absorption and PL spectra of TBSM in THF solution (c=10^−5 M) and FIG. 16B Normalized absorption and PL spectra of TBSM in solid state. λex=460 nm.
FIG. 17A PL spectra of TBSM in water/THF mixtures with different water fractions (fw); FIG. 17B Plots of relative PL intensity (αAIE=I/I0, I0=PL intensity in pure THF at 672 nm) vs fw. c=10 μM, λex=460 nm. Insert: the fluorescence pictures of the mixture with fw=50% and 95%.
FIG. 23A Absorption spectra of TBSMCN in THF (c=10^−5 mol/L) and as film. FIG. 23B PL spectra of TBSMCN in THF (c=10^−5 mol/L) and as film, λex=530 nm.
FIG. 24A PL spectra of TBSMCN in H2O/THF mixtures with different water fractions (fw). Concentration: 10^−5 M; λex=530 nm. FIG. 24B Plots of relative emission intensity (I/I0) versus the composition of the mixture, where I0=PL intensity in pure THF at λem=810 nm.
UV spectrum FIG. 27A and PL spectrum FIG. 27B of TBSMPy in film state. λex=560 nm.
UV spectrum FIG. 28A and PL spectrum FIG. 28B of TBSMDPy in film state. λex=580 nm.
The photophysical properties of TBSM were first examined. […] TBSM gave a much brighter red emission in toluene solution with an emission wavelength at 605 nm and a QY of 67.9%. While in THF solution, the emission wavelength red-shifted to 669 nm with a QY of 4.1%.
We then investigated the luminescence behavior of TBSM in the mixture of THF and water to see whether it is AIE-active. When adding water into the THF solution, the photoluminescence (PL) intensity decreased with the water fraction (fw) in a range of 0-50%. In this case, the TICT effect dominated the photophysical process and reduced the emission intensity. When the fw exceeded 50%, the TBSM molecule began to aggregate and made the local microenvironment less polar. Therefore, the conformation rigidification became dominated and reversed the PL intensity from weak to strong.
To gain an insight to the details of the photophyscial properties of TBSM, we analyzed its crystal structure. TBSM molecules also show bright emission in the solid state since the locked nonplanar conformation can avoid the strong intermolecular π-π interactions. Indeed, no strong intermolecular π-π stacking has been observed in the crystal packing of TBSM. However, multiple intermolecular non-covalent interactions such as S . . . π, C≡N . . . π, C—H . . . N, C—H . . . S, and intermolecular hydrogen bonding interactions were observed which helps lock the solid-state molecular motion.
The photophysical properties of TBSMCN were investigated. […] In the film, the ICT peak further red shifted to 580 nm. […] TBSMCN was also AIE-active, showing increased PL emission intensity in the mixture of THF and water as the water fraction increased (FIG. 24A and FIG. 24B).
The photophysical properties of TBSMPy and TBSMDPy were studied. In the film state, they had absorption peaks around 400 nm and 580 nm. The emission peaks were at 750 nm with high QY of 16.3% and 25.0% for TBSMPy and TBSMDPy, respectively (FIGS. 27 and 28).

Data set [2] has as its system lipid droplets (LDs) in Hela cells. Put plainly: Co-localization with BODIPY 493/503 in live Hela cells (confocal imaging). The data set is classed as cell-based. The conditions noted are these: 2 μM TBSM 1 h, co-stained with BODIPY 493/503. On the procedure:
FIG. 19 Confocal fluorescent images of live HeLa cell stained with 2 μM TBSM (1 h) and 1 μg/mL BODIPY (1 h). TBSM: λex=488 nm, λem=550-650 nm; BODIPY: λex=488 nm, λem=490-535 nm. Scale bar=20 μm. The number on the figure is colocalization coefficient.
To confirm the specificity of the TBSM for LDs imaging, the co-localization experiments were then carried out by incubating Hela cells with TBSM and BODIPY 493/503, a commercial dye for LDs.

For data set [3], the system named is A549 and Hela cells. The data set is described as follows: Live cell staining of A549 and Hela cells. The data set is classed as cell-based. The settings on record: 2 μM, 1 h.
The test system of data set [4] is LDs of liver tissues of mice. Put plainly: Ex vivo co-staining with BODIPY in high-fat feeding mice liver tissue. The conditions noted are these: TBSM 2 μM 1 h, BODIPY 2 μM 1 h. Here is the method: FIG. 20 Co-stained ex vivo confocal one-photon (λex=488 nm) images TBSM (2 μM, 1 h) and BODIPY (2 μM, 1 h) in high-fat feeding mice liver tissue. TBSM: λex=488 nm, λem=550-650 nm; BODIPY: μex=488 nm, λem=490-535 nm. Scale bar: 10 μm. The number on the picture is colocalization coefficient.

Data set [5] has as its system LDs in the yolk sac of zebrafish embryos. The data set is described as follows: In vivo zebrafish embryo imaging. The settings on record: 3-day-old zebrafish embryos, stained for 30 min. On the procedure: FIG. 22 In vivo zebrafish embryo imaging stained with TBSM (1 μM, […]), λex=488 nm, λem=550-650 nm. The right is the enlarged part of white frame in the left.
Yolk sac as a neutral lipid and polar phospholipids storage organ provides energy for the upgrowth of zebrafish. Intense red fluorescence signals originating from the yolk sac in 3-day-old zebrafish embryos were observed after stained with TBSM for 30 min (FIG. 22).

Consider `N#CC(C#N)=C1Sc2c(c(-c3ccc(N(c4ccccc4)c4ccccc4)cc3)c3nsnc3c2C#Cc2ccncc2)S1` [TBSMPy], for which, in data set [1] (film state), the QY is given as 16.3% and the emission peak was 750 nm.

As to `N#CC(C#N)=C1Sc2c(c(-c3ccc(N(c4ccccc4)c4ccccc4)cc3)c3nsnc3c2C#N)S1` [TBSMCN], the “aggregation induced emission (AIE)” value in data set [1] was “AIE-active”. Further, the QY result in data set [1] (film state) was “about 10%”.

With `N#CC(C#N)=C1Sc2c(F)c(-c3ccc(N(c4ccccc4)c4ccccc4)cc3)c3nsnc3c2S1` [TBSM], the co-localization coefficient in data set [2] was determined as 0.91; in data set [4], 0.97. Besides, the “permeability for living cells” value in data set [3] is on record as “fast permeability”. Further, the “specificity toward LDs in vivo” value in data set [5] is given as “highly specific toward LDs”. Besides, the QY was found to be 4.1% in data set [1] (THF solution) and 67.9% in data set [1] (toluene solution). Besides, the emission wavelength was 669 nm in data set [1] (THF solution), 670 nm in data set [1] (solid) and 605 nm in data set [1] (toluene solution). Besides, the “aggregation induced emission (AIE)” value in data set [1] is recorded as “exhibits typical AIE property”. In data set [1] (solid), this compound registered a quantum yield of 13%.

In the case of `N#CC(C#N)=C1Sc2c(c(-c3ccc(N(c4ccccc4)c4ccccc4)cc3)c3nsnc3c2C#Cc2cc(C#Cc3cccnc3)cc(C#Cc3cccnc3)c2)S1` [TBSMDPy], in data set [1] (film state), the QY was found to be 25.0% and the emission peak stood at 750 nm.
